Literature values, collected in US20030133872A1, “Radiopharmaceutical agent for the treatment of early stage cancer” (priority 2001, published 2003).

Details: Woolfenden et al., Int. J. Nucl. Med. 10 (4), 251-256 (1983)

liver uptake: high liver uptake
Structure (SMILES): [153Sm+3].[Cl-].[Cl-].[Cl-] [^153Sm-chloride]
